Consider 55 compounds from patent publication US9963462B2 (priority 2015, dated 2018).

Assay [1] concerns the target SNAP-hSPR (sepiapterin reductase, SPR) (Homo sapiens, UniProt P35270). Kind of assay: biochemical. The assay is classed as binding. The note with it: terbium labelled SNAP-hSPR / SSZ labelled SNAP-EGFP; read-out: hTR-FRET IC50.
For assay [2], the system named is BH4 production in human peripheral blood mononuclear cells (PBMCs). Kind of assay: hPBMC assay, inhibition of BH4 production by LC-MS (anti-CD3/anti-CD28 stimulated). In kind it is cell-based. The note with it: PBMC, read-out: hPBMC IC50.

Chain of SNAP-hSPR (sepiapterin reductase, SPR) (P35270 whole entry): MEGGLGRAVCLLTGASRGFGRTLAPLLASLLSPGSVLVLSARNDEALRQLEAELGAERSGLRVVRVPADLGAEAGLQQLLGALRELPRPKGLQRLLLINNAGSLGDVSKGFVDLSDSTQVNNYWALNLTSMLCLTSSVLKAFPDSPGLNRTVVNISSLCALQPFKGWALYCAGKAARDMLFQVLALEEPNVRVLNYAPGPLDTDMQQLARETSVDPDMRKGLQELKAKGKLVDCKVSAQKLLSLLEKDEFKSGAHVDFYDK

With `Cc1c(C(=O)N2C3CCC2CN(C2CC2)C3)cnn1-c1nn2cccc2c(=O)[nH]1` [Q-1094], the IC50 was determined as 1 nM in assay [1] and 99 nM in assay [2].

As for `Cc1c(C(=O)N2CCC(n3ccc(S(=O)(=O)C(F)(F)F)c3)CC2)cnn1-c1nn2cccc2c(=O)[nH]1` [Q-1289], the IC50 was found to be 2 nM in assay [1] and 70 nM in assay [2].

Turning to `C=C(C1CCN(C(=O)c2cnn(-c3nc4c(c(=O)[nH]3)CCC4)c2C)CC1)C(F)(F)F` [Q-1096], the 50% inhibitory concentration (IC50) in assay [1] came out at 1 nM; in assay [2], 18 nM.

Regarding `CCC(C#N)C1=CCN(C(=O)c2cnn(-c3nc4c(c(=O)[nH]3)CCC4)c2C)CC1` (centres unmarked) [Q-1103], the IC50 in assay [1] was 1 nM; in assay [2] it was 100 nM.

`Cc1c(C(=O)N2CCCC(O)(C(F)(F)F)CC2)cnn1-c1nn2cccc2c(=O)[nH]1` (centres unmarked) [Q-1118]: the IC50 is 1 nM in assay [1] and 110 nM in assay [2].

`Cc1c(C(=O)N2CCN(c3nc(-c4cccc(Cl)c4)cs3)CC2)cnn1-c1nn2cccc2c(=O)[nH]1` [Q-1155]: the IC50 is 10 nM in assay [1] and 270 nM in assay [2].

Turning to `Cc1c(C(=O)N2CC(N3CCC(F)(F)C3)C2)cnn1-c1nc2[nH]ccc2c(=O)[nH]1` [Q-1254], the IC50 in assay [1] came out at 100 nM; in assay [2], 870 nM.

Take `C=CCC(C#N)(CC=C)C1CCN(C(=O)c2cnn(-c3nn4cccc4c(=O)[nH]3)c2C)CC1` [Q-1110]: the IC50 in assay [1] was found to be 2 nM; in assay [2], 43 nM.

Turning to `Cc1c(C(=O)N2C3CCC2CN(c2nccs2)C3)cnn1-c1nn2cccc2c(=O)[nH]1` [Q-1107], the IC50 in assay [1] came to 1 nM; in assay [2], 58 nM.

As for `O=C(c1cnn(-c2nn3cccc3c(=O)[nH]2)c1)N1CCN2CC(F)(F)C[C@H]2C1` [Q-1246], the results for the IC50 in assay [1] and in assay [2] were 4 nM and 100 nM, respectively.

In the case of `Cc1c(C(=O)N2CCC(n3cccc3S(=O)(=O)C(F)(F)F)CC2)cnn1-c1nn2cccc2c(=O)[nH]1` [Q-1288], the half-maximal inhibitory concentration (IC50) amounted to 8 nM in assay [1] and 600 nM in assay [2].

On to `Cc1c(C(=O)N2CCN(c3ncc(-c4cccc(F)c4)o3)CC2)cnn1-c1nn2cccc2c(=O)[nH]1` [Q-1157], for which the IC50 came to 4 nM in assay [1] and 490 nM in assay [2].

Take `Cc1c(C(=O)N2CCC(c3noc(C(F)(F)F)n3)CC2)cnn1-c1nc2c(c(=O)[nH]1)CCC2` [Q-1075]: the IC50 came to 2 nM in assay [1] and 17 nM in assay [2].

Turning to `CC(=O)C1(c2ccccc2)CCN(C(=O)c2cnn(-c3nn4cccc4c(=O)[nH]3)c2C)CC1` [Q-1215], the IC50 turned out to be 1 nM in assay [1] and 17 nM in assay [2].

On to `Cc1c(C(=O)N2CCN(S(=O)(=O)c3cccc4ccccc34)CC2)cnn1-c1nn2cccc2c(=O)[nH]1` [Q-1841], for which the IC50 in assay [1] amounted to 1 nM; in assay [2], 87 nM.

For `Cc1c(C(=O)N2CCC2c2ccc(Cl)cc2)cnn1-c1nn2cccc2c(=O)[nH]1` (centres unmarked) [Q-1071], the figures for the IC50 in assay [1] and in assay [2] were 6 nM and 32 nM, respectively.

On to `Cc1c(C(=O)N2CCN(S(=O)(=O)c3cccnc3)CC2)cnn1-c1nn2cccc2c(=O)[nH]1` [Q-1857], for which the IC50 was found to be 1 nM in assay [1] and 150 nM in assay [2].

Take `Cc1c(C(=O)N2CCC(c3nc(-c4ccncc4)cs3)CC2)cnn1-c1nn2cccc2c(=O)[nH]1` [Q-1101]: the IC50 in assay [1] was 1 nM; in assay [2] it was 41 nM.

Consider `Cc1c(C(=O)N2CCN(S(=O)(=O)c3ccc(C#N)cc3)CC2)cnn1-c1nn2cccc2c(=O)[nH]1` [Q-1838], for which the IC50 was 1 nM in assay [1] and 170 nM in assay [2].

With `Cc1c(C(=O)N2CCN(c3ncc(-c4ccccc4C#N)o3)CC2)cnn1-c1nn2cccc2c(=O)[nH]1` [Q-1203], the results for the IC50 in assay [1] and in assay [2] were 6 nM and 180 nM, respectively.

`Cc1c(C(=O)N2CCN(c3ncc(-c4ccc(F)cc4)o3)CC2)cnn1-c1nn2cccc2c(=O)[nH]1` [Q-1202]: the IC50 in assay [1] was determined as 5 nM; in assay [2], 260 nM.

`Cc1c(C(=O)N2CCC(C3CC3)CC2)nnn1-c1nn2cccc2c(=O)[nH]1` [Q-1184]: the figures for the IC50 in assay [1] and in assay [2] were 2 nM and 37 nM, respectively.

In the case of `Cc1c(C(=O)N2CCN(c3nnc(-c4cccc(Cl)c4)o3)CC2)cnn1-c1nn2cccc2c(=O)[nH]1` [Q-1154], the IC50 in assay [1] was found to be 5 nM; in assay [2], 350 nM.

As for `Cc1c(C(=O)N2CCN(c3nc(-c4cccc(C(F)(F)F)c4)cs3)CC2)cnn1-c1nn2cccc2c(=O)[nH]1` [Q-1173], the IC50 turned out to be 20 nM in assay [1] and 290 nM in assay [2].

For `O=C(c1cn(-c2nn3cccc3c(=O)[nH]2)nn1)N1CCN(C2CC2)CC1` [Q-1221], the figures for the IC50 in assay [1] and in assay [2] were 1 nM and 37 nM, respectively.

Turning to `Cc1c(C(=O)N2CCC(c3nc(-c4ccccc4)co3)CC2)cnn1-c1nn2cccc2c(=O)[nH]1` [Q-1080], the IC50 in assay [1] was found to be 2 nM; in assay [2], 25 nM.

Take `Cc1c(C(=O)N2CCN(c3ncc(-c4ccc(Cl)nc4)o3)CC2)nnn1-c1nn2cccc2c(=O)[nH]1` [Q-1190]: the IC50 stood at 10 nM in assay [1] and 59 nM in assay [2].

`Cc1c(C(=O)N2CCC(n3cnc(C(F)(F)F)c3)CC2)cnn1-c1nn2cccc2c(=O)[nH]1` [Q-1234]: the IC50 in assay [1] was 2 nM; in assay [2] it was 27 nM.

On to `Cc1c(C(=O)N2CCCN(CCC(F)(F)F)CC2)cnn1-c1nn2cccc2c(=O)[nH]1` [Q-1183], for which the IC50 was found to be 4 nM in assay [1] and 110 nM in assay [2].

Take `Cc1c(C(=O)N2CCN(S(=O)(=O)C3CCCCC3)CC2)cnn1-c1nn2cccc2c(=O)[nH]1` [Q-1818]: the 50% inhibitory concentration (IC50) in assay [1] stood at 1 nM; in assay [2] it was 95 nM.

As to `C=CCC(C#N)C1CCN(C(=O)c2cnn(-c3nc4c(c(=O)[nH]3)CCC4)c2C)CC1` (centres unmarked) [Q-1073], the IC50 in assay [1] is 3 nM; in assay [2], 55 nM.

As to `Cc1c(C(=O)N2CCN(S(=O)(=O)c3cccc4nsnc34)CC2)cnn1-c1nn2cccc2c(=O)[nH]1` [Q-1882], the IC50 in assay [1] came out at 2 nM; in assay [2], 92 nM.

As to `Cc1c(C(=O)N2CCN(C3CCC3)CC2)nnn1-c1nn2cccc2c(=O)[nH]1` [Q-1191], the IC50 in assay [1] turned out to be 1 nM; in assay [2], 20 nM.

For the compound `Cc1c(C(=O)N2CCN(CC3CCCO3)CC2)cnn1-c1nn2cccc2c(=O)[nH]1` (centres unmarked) [Q-2016], the IC50 in assay [1] came to 1 nM; in assay [2], 45 nM.

Regarding `Cc1c(C(=O)N2CCN(C3CC3)CC2)nnn1-c1nn2cccc2c(=O)[nH]1` [Q-1201], the IC50 came to 1 nM in assay [1] and 69 nM in assay [2].

For the compound `Cc1c(C(=O)N2CCC(c3ccc(Cl)nc3)CC2)cnn1-c1nn2cccc2c(=O)[nH]1` [Q-1116], the values for the IC50 in assay [1] and in assay [2] were 1 nM and 76 nM, respectively.

Consider `Cc1c(C(=O)N2CCC(C(CO)C(F)(F)F)CC2)cnn1-c1nn2cccc2c(=O)[nH]1` (centres unmarked) [Q-1228], for which the figures for the IC50 in assay [1] and in assay [2] were 1 nM and 17 nM, respectively.

For the compound `Cc1c(C(=O)N2CCC(n3ccc(C#N)c3)CC2)cnn1-c1nn2cccc2c(=O)[nH]1` [Q-1250], the IC50 in assay [1] is 1 nM; in assay [2] it was 24 nM.

On to `Cc1c(C(=O)N2CCc3nc(-c4cccc(Cl)c4)sc3C2)cnn1-c1nn2cccc2c(=O)[nH]1` [Q-1166], for which the IC50 in assay [1] was determined as 5 nM; in assay [2], 20 nM.

`Cc1c(C(=O)N2CCC(C(=O)N3CCCCC3)(C(F)(F)F)CC2)cnn1-c1nn2cccc2c(=O)[nH]1` [Q-1086]: the 50% inhibitory concentration (IC50) worked out at 1 nM in assay [1] and 84 nM in assay [2].

`Cc1c(C(=O)N2CCN(C3CCC3(F)F)CC2)cnn1-c1nn2cccc2c(=O)[nH]1` (centres unmarked) [Q-1120]: the IC50 in assay [1] amounted to 1 nM; in assay [2], 97 nM.

For the compound `Cc1c(C(=O)N2CCC(C(=O)N3CCC3)(C(F)(F)F)CC2)cnn1-c1nn2cccc2c(=O)[nH]1` [Q-1085], the IC50 is 1 nM in assay [1] and 63 nM in assay [2].

With `CCC(=O)N1CCN(C(=O)c2cnn(-c3nn4cccc4c(=O)[nH]3)c2C)CC1` [Q-1214], the IC50 in assay [1] was determined as 6 nM; in assay [2] it was 1000 nM.

Regarding `Cc1c(C(=O)N2CCc3nc(-c4ccncc4)sc3C2)cnn1-c1nn2cccc2c(=O)[nH]1` [Q-1187], the values for the IC50 in assay [1] and in assay [2] were 4 nM and 190 nM, respectively.

With `Cc1noc(C)c1S(=O)(=O)N1CCN(C(=O)c2cnn(-c3nn4cccc4c(=O)[nH]3)c2C)CC1` [Q-1848], the IC50 in assay [1] amounted to 1 nM; in assay [2] it was 210 nM.

For the compound `Cc1c(C(=O)N2CC3CC(C2)N3C(=O)OC(C)(C)C)cnn1-c1nn2cccc2c(=O)[nH]1` [Q-1170], the IC50 in assay [1] turned out to be 1 nM; in assay [2] it was 160 nM.

For `Cc1c(C(=O)NC2CC(F)(F)C2)cnn1-c1nn2cccc2c(=O)[nH]1` [Q-1177], the results for the IC50 in assay [1] and in assay [2] were 9 nM and 1300 nM, respectively.

On to `Cc1c(C(=O)N2CCN(CC(F)(F)F)CC2)cnn1-c1nc2c(c(=O)[nH]1)COC2` [Q-1344], for which the IC50 worked out at 9 nM in assay [1] and 320 nM in assay [2].

As for `Cc1c(C(=O)N2CCC(c3nc(C#N)cs3)CC2)cnn1-c1nn2cccc2c(=O)[nH]1` [Q-1093], the IC50 in assay [1] was 1 nM; in assay [2], 95 nM.

`Cc1c(C(=O)N2CCC(n3cccc3C(F)(F)F)CC2)cnn1-c1nn2cccc2c(=O)[nH]1` [Q-1238]: the figures for the IC50 in assay [1] and in assay [2] were 2 nM and 79 nM, respectively.

With `Cc1c(C(=O)N2CC3CC(C2)N3CC(F)(F)F)cnn1-c1nc2[nH]ccc2c(=O)[nH]1` [Q-1305], the values for the IC50 in assay [1] and in assay [2] were 100 nM and 1200 nM, respectively.

`COC(=O)c1sccc1S(=O)(=O)N1CCN(C(=O)c2cnn(-c3nn4cccc4c(=O)[nH]3)c2C)CC1` [Q-1875]: the IC50 in assay [1] turned out to be 1 nM; in assay [2] it was 110 nM.

With `Cc1c(C(=O)N2CCN(c3ncc(-c4ccc(Cl)cc4)o3)CC2)cnn1-c1nn2cccc2c(=O)[nH]1` [Q-1135], the IC50 came to 10 nM in assay [1] and 45 nM in assay [2].

Turning to `CCC(=O)C1CCN(C(=O)c2cnn(-c3nn4cccc4c(=O)[nH]3)c2C)CC1` [Q-1112], the IC50 in assay [1] is 1 nM; in assay [2] it was 37 nM.

In the case of `Cc1c(C(=O)N2CCC(c3nc(-c4ccncc4)cs3)CC2)cnn1-c1nc2c(c(=O)[nH]1)CCC2` [Q-1136], the figures for the IC50 in assay [1] and in assay [2] were 2 nM and 14 nM, respectively.

Usually IC50 stands for the concentration needed to halve the response being measured.
